This passage reports EC50 results from patent US10669252B2, “Benzazepine derivative, preparation method, pharmaceutical composition and use thereof” (SHANGHAI DE NOVO PHARMATECH CO., LTD., priority 2016, dated 2020).

Assay [1] addresses T1, TLR7 (Homo sapiens, UniProt Q9NYK1).
T1 construct: host or cells: HEK293 (HEK-BLUE-hTLR7)
T1 sequence (Q9NYK1 27-1049): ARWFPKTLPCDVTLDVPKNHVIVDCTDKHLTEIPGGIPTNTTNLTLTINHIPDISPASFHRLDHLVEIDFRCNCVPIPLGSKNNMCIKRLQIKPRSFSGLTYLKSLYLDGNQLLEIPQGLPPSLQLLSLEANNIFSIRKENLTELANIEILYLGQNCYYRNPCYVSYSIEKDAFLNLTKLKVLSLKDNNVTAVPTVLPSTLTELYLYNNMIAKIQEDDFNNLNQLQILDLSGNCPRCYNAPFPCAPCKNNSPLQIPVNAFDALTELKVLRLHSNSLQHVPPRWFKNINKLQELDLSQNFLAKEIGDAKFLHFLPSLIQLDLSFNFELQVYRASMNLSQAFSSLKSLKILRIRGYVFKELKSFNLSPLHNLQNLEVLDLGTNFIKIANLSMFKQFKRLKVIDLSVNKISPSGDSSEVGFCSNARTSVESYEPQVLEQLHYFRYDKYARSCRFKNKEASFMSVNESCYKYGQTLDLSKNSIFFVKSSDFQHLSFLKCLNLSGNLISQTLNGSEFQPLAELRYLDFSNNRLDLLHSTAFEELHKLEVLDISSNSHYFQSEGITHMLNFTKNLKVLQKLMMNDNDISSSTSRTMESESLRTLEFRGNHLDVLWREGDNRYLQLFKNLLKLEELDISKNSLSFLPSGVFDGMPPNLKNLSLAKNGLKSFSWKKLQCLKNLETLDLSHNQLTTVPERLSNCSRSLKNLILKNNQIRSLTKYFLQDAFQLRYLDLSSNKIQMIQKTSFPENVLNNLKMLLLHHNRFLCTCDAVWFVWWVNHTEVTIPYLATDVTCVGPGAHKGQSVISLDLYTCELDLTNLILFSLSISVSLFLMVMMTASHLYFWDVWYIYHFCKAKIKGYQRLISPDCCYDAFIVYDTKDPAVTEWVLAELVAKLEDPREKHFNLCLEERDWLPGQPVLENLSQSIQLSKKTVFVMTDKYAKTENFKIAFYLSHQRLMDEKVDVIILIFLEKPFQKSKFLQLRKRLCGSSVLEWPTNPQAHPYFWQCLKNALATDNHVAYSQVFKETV
Nature of the assay: TLR7 cell based assay (HEK-BLUE-hTLR7, SEAP reporter linked to NF-κB activation). To be noted: HEK-BLUE-hTLR7 cells, 24 hours treatment, SEAP/QUANTI-Blue readout. As for the experimental part:
In this assay, the bioactivity of compound of formula (I) was measured using a cell based assay. The assay was performed in human embryonic kidney cells (HEK293) expressing TLR7 or other TLR family members such as TLR4, and TLR9 (for selectivity screens). The activity of specific TLR agonists was assessed using the secretory embryonic alkaline phosphatase (SEAP) reporter gene that is linked to NF-κB activation in response to TLR stimulation. The SEAP activity was measured using the Quanti-Blue substrate (InvivoGen) after TLR agonist treatment.
(§1) The detailed experimental method is as follow:
HEK-BLUE-hTLR7 cell line was purchased from InvivoGen. The cells were cultured in Dulbecco's Modified Eagle's Media containing 4.5 g/L […] (Sigma-Aldrich) and 10% FBS. The cells were cultured at 37° C., 95% humidity and 5% CO2.
[…] A known TLR8 agonist was added as positive control and 1 μl of DMSO was added as negative control.
The cells were prepared as follows. The cells were removed from the incubator and growth medium was discarded. The cells were gently rinsed with pre-warmed 10 ml PBS for a T-150 flask. 12 ml pre-warmed growth medium was added, and the cells were detached by tapping the flask. Cell clumps were dissociated by gently pipetting up and down. The cells were counted. Single cell suspension was prepared at 200,000 cells per ml in growth medium and 200 μl of the cell suspension (40,000 cells per well) were immediately added to each well of the plate. The final DMSO concentration of each well was 0.5%.
The cells were cultured and treated with the compounds at 37° C., 5% CO2 for 24 hours.
(§2) 20 μL of the supernatant of each well were added to 180 μL of QUANTI-Blue, and the plates were incubated at 37° C. for 1.5 hour. Optical density was measured using a spectrophotometer at 650 nm (OD data). Activivation was calculated by using the equation below: Activivation %=(Compound OD mean value−DMSO OD mean value)/(positive control OD mean value−DMSO OD mean value)×100
(§3) The data were analyzed using the GraphPad to get EC50 values and fitting dose response curves of the compounds.

Assay [2] concerns the target T2, TLR8 (Homo sapiens, UniProt Q9NR97).
T2 construct: host or cells: HEK293 (HEK-BLUE-hTLR8)
T2 sequence (Q9NR97 27-1041): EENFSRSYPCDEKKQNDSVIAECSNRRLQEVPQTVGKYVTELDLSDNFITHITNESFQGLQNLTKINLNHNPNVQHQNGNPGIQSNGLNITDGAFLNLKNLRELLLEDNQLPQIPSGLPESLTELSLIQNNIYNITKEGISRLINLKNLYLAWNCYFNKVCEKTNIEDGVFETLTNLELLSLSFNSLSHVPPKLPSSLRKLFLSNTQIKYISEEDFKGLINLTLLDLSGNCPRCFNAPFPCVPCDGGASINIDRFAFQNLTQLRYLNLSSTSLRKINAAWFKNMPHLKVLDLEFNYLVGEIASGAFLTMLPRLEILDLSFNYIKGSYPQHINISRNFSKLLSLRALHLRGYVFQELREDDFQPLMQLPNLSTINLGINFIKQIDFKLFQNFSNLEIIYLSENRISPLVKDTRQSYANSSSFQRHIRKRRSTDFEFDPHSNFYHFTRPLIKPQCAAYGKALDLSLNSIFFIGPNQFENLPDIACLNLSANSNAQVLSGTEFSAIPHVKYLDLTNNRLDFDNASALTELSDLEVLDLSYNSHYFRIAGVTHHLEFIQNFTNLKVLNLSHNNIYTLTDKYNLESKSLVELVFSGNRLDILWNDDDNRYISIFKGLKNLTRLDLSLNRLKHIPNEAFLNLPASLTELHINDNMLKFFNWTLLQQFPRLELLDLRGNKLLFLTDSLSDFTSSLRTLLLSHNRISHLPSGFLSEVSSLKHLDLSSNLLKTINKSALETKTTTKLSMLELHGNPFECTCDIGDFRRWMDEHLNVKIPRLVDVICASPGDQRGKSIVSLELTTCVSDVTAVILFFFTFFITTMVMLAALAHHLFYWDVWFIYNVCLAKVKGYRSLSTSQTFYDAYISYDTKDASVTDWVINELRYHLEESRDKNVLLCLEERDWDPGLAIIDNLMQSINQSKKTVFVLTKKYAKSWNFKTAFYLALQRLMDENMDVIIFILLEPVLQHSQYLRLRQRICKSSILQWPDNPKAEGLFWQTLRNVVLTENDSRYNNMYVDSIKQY
Nature of the assay: TLR8 cell based assay (HEK-BLUE-hTLR8, SEAP reporter linked to NF-κB activation). The note with it: HEK-BLUE-hTLR8 cells. As for the experimental part:
In this assay, the bioactivity of compound of formula Iw as measured using a cell based assay. The assay was performed in human embryonic kidney cells (HEK293) expressing TLR8 or other TLR family members such as TLR4, TLR7 and TLR9 (for selectivity screens). The activity of specific TLR agonists was assessed using the secretory embryonic alkaline phosphatase (SEAP) reporter gene that is linked to NF-κB activation in response to TLR stimulation. The SEAP activity was measured using the Quanti-Blue substrate (InvivoGen) after TLR agonist treatment.
as §1
HEK-BLUE-hTLR8 cell line was purchased from InvivoGen. The cells were cultured in Dulbecco's Modified Eagle's Media containing 4.5 g/L […] (Sigma-Aldrich) and 10% FBS. The cells were cultured at 37° C., 95% humidity and 5% CO2.
Test concentrations of the compounds ranged from 0.5 nM to 15 μM with 10 points. A known TLR8 agonist was added as positive control and 1 μl of DMSO was added as negative control.
The cells were prepared as follows: The cells were removed from the incubator and growth medium was discarded. The cells were gently rinsed with pre-warmed 10 ml PBS for a T-150 flask. 12 ml pre-warmed growth medium was added, and the cells were detached by tapping the flask. Cell clumps were dissociated by gently pipetting up and down. The cells were counted. Single cell suspension was prepared at 200,000 cells per ml in growth medium and 200 μl of the cell suspension (40,000 cells per well) were immediately added to each well of the plate. The final DMSO concentration of each well was 0.5%.
The cells were cultured and treated with the compounds at 37° C., 5% CO2 for 24 h.
as §2, §3

Setting [3] is: 24 h treatment, SEAP/QUANTI-Blue readout.

Molecules are shown by their SMILES.

Regarding `CCCN(CCC)C(=O)C1=Cc2ccc(-c3ccc4c(=O)n(CCO)c(C)cc4c3)cc2N=C(N)C1` [Compound 1-2-8], the half-maximal effective concentration (EC50) was greater than 50 µM in assay [1] and less than 100 nM in assay [2] (setting [3]).
The matching figures for `CCCN(CCC)C(=O)C1=Cc2ccc(-c3ccc4c(=O)n(CC(C)(C)O)c(C)cc4c3)cc2N=C(N)C1` [Compound 1-2-9]: greater than 50 µM and less than 100 nM.
As to `CCCN(CCC)C(=O)C1=Cc2ccc(-c3ccc4c(=O)n(CC(N)=O)ccc4c3)cc2N=C(N)C1` [Compound 1-2-10], the EC50 in assay [1] was greater than 50 µM; in assay [2] (setting [3]), less than 100 nM.
For `CCCN(CCC)C(=O)C1=Cc2ccc(-c3ccc4c(=O)n(CC(C)(C)O)ccc4c3)cc2N=C(N)C1` [Compound 1-2-13], the figures for the EC50 in assay [1] and in assay [2] (setting [3]) were greater than 50 µM and less than 100 nM, respectively.
With `CCCN(CCC)C(=O)C1=Cc2ccc(-c3ccc4c(=O)n(CCOC)ccc4c3)cc2N=C(N)C1` [Compound 1-2-14], the results for the EC50 in assay [1] and in assay [2] (setting [3]) were greater than 50 µM and less than 100 nM, respectively.
On to `CCCN(CCC)C(=O)C1=Cc2ccc(-c3ccc4c(=O)n(CC(N)=O)c(C)cc4c3)cc2N=C(N)C1` [Compound 1-2-16], for which the EC50 in assay [1] was greater than 50 µM; in assay [2] (setting [3]) it was less than 100 nM.
The corresponding values for `CCCN(CCC)C(=O)C1=Cc2ccc(-c3ccc4c(=O)n(CCN)ccc4c3)cc2N=C(N)C1` [Compound 1-2-17] are greater than 50 µM and less than 100 nM.
The corresponding values for `CCCN(CCC)C(=O)C1=Cc2ccc(-c3ccc4c(=O)n(CCNC(C)=O)ccc4c3)cc2N=C(N)C1` [Compound 1-2-18] are greater than 50 µM and less than 100 nM.
The corresponding values for `CCCN(CCC)C(=O)C1=Cc2ccc(-c3ccc4c(=O)n(CCNS(C)(=O)=O)ccc4c3)cc2N=C(N)C1` [Compound 1-2-19] are greater than 50 µM and less than 100 nM.
In the case of `CCCN(CCC)C(=O)C1=Cc2ccc(-c3ccc4c(=O)n(CC(=O)NC)ccc4c3)cc2N=C(N)C1` [Compound 1-2-21], the half-maximal effective concentration (EC50) was greater than 50 µM in assay [1] and less than 100 nM in assay [2] (setting [3]).
The corresponding values for `CCCN(CCC)C(=O)C1=Cc2ccc(-c3ccc4c(=O)n(CCSC)ccc4c3)cc2N=C(N)C1` [Compound 1-2-22] are greater than 50 µM and less than 100 nM.
The corresponding values for `CCCN(CCC)C(=O)C1=Cc2ccc(-c3ccc4c(=O)n(CCS(C)(=O)=O)ccc4c3)cc2N=C(N)C1` [Compound 1-2-23] are greater than 50 µM and less than 100 nM.
For the compound `CCCN(CCC)C(=O)C1=Cc2ccc(-c3ccc4c(=O)n(Cc5ncco5)ccc4c3)cc2N=C(N)C1` [Compound 1-2-28], the concentration for a half-maximal effect (EC50) was 10 to 50 µM in assay [1] and less than 100 nM in assay [2] (setting [3]).
Consider `CCCN(CCC)C(=O)C1=Cc2ccc(-c3ccc4c(=O)n(Cc5ncccn5)ccc4c3)cc2N=C(N)C1` [Compound 1-2-31], for which the concentration for a half-maximal effect (EC50) in assay [1] is 10 to 50 µM; in assay [2] (setting [3]), less than 100 nM; in assay [2] (bound stated), less than 10 nM.
As to `CCCN(CCC)C(=O)C1=Cc2ccc(-c3ccc4c(=O)n(CCn5cccn5)ccc4c3)cc2N=C(N)C1` [Compound 1-2-32], the concentration for a half-maximal effect (EC50) in assay [1] was 1 to 10 µM; in assay [2] (setting [3]), less than 100 nM.
The matching figures for `CCCN(CCC)C(=O)C1=Cc2ccc(-c3ccc4c(=O)n(Cc5nccn5C)ccc4c3)cc2N=C(N)C1` [Compound 1-2-33]: greater than 50 µM and less than 100 nM.
On to `CCCN(CCC)C(=O)C1=Cc2c(cc(-c3ccc4c(=O)n(CCS(C)(=O)=O)ncc4c3)cc2OC)N=C(N)C1` [Compound 2-2-1], for which, in assay [2] (setting [3]), the EC50 is 100 to 1000 nM.
Regarding `CCCN(CCC)C(=O)C1=Cc2c(Cl)cc(-c3ccc4c(=O)n(CCS(C)(=O)=O)ncc4c3)cc2N=C(N)C1` [Compound 2-2-3], the EC50 in assay [2] (setting [3]) fell in the range of 100 to 1000 nM.
As for `[2H]c1cc(-c2ccc3c(=O)n(CCS(C)(=O)=O)ncc3c2)cc2c1C=C(C(=O)N(CCC)CCC)CC(N)=N2` [Compound 2-2-4], the EC50 in assay [2] (setting [3]) was less than 100 nM; in assay [2] (bound stated), less than 10 nM.
`CCCN(CCC)C(=O)C1=Cc2c(Cl)cc(-c3ccc4c(=O)n(Cc5ncccn5)ncc4c3)cc2N=C(N)C1` [Compound 2-3-1] showed a concentration for a half-maximal effect (EC50) in assay [2] (setting [3]) of less than 100 nM.
As to `CCCN(CCC)C(=O)C1=Cc2c(C)cc(-c3ccc4c(=O)n(Cc5ncccn5)ncc4c3)cc2N=C(N)C1` [Compound 2-3-2], the concentration for a half-maximal effect (EC50) in assay [2] (setting [3]) is less than 100 nM; in assay [2] (bound stated), less than 10 nM.
The corresponding values for `[2H]c1cc(-c2ccc3c(=O)n(Cc4ncccn4)ncc3c2)cc2c1C=C(C(=O)N(CCC)CCC)CC(N)=N2` [Compound 2-3-3] are less than 100 nM and less than 10 nM.

What is called EC50 is the midpoint of the concentration-response curve. Lower therefore signals greater potency.
